Structures are written as SMILES.

Test [1] relates to Interleukin-2 (IL-2) production/release in Jurkat T cell line clone E6-1. The test can be described thus: Jurkat IL-2 Production Assay. The format is cell-based. To be noted: Homo sapiens; Jurkat T cells stimulated with 15 μg/ml PHA for 22 hours; IL-2 in supernatant (AlphaLisa). The protocol: Jurkat IL-2 Production Assay
The effect of compounds of the invention on Interleukin-2 (IL-2) production/release was tested in the Jurkat T cell line (ECACC) clone E6-1.
Jurkat T cells were cultured in DMEM/F12/Glutamax (Gibco) containing 10% FCS (Gibco), and maintained at 37° C., 5% CO2. Cells were split twice a week [5·10^6 (Mon-Thu) and 1·10^7 (Thu-Mon) cells/50 ml medium in T-175 ZK culture flasks, respectively].
Prior to experiment, cells were seeded on 96 well plates (Cellstar 96 Well; Cat No. 655180, Greiner bio-one) at a density of 5·10^5 cells/well in DMEM/F12/Glutamax (Gibco) containing 10% FCS (Gibco), and incubated for 60 min at 37° C., 5% CO2. Subsequently, compounds were added and cells were allowed to incubate for 30 min at 37° C., 5% CO2. Cells were then stimulated with 15 μg/ml Phyto-hemagglutinin (PHA; Sigma) for 22 hours at 37° C., 5% CO2.
Before sampling of the supernatants, cells were spun down (200*g/5 min/RT). The amount of IL-2 released into the supernatant was quantified with the human IL-2 AlphaLisa kit (Perkin Elmer) according to manufacturer's instructions. Luminescence proximity measurements were carried out in the Synergy H4 reader (BioTek) employing the fluorescence setting of the reader (ex: 680/30 nm; em: 620/40 nm).
Inhibition of IL-Production/Release in/from Jurkat T Cells Cells was Quantified as Follows:
Zero percent inhibition (MAX) was defined as the [IL-2] determined in supernatants derived from cells to which PHA & DMSO-only had been added instead of compound. Hundred percent inhibition (MIN) was defined as the [IL-2] determined in supernatants derived from cells that had been pre-treated with 1 μM CyclosporineA (Sigma) before the addition of 15 μg/ml PHA.
For routine IC50 determinations of compounds, 8 concentrations of a serial dilution (1:3.16) were tested, starting off from 10 μM.
For orientation: Alpha assays give light when donor and acceptor beads are brought close together.

The target in test [2] is T1, CRAC channel (endogenous SOC in HEK293 cells) (Homo sapiens, UniProt Q96D31).
T1 construct: host or cells: HEK293
T1 sequence (Q96D31 whole entry): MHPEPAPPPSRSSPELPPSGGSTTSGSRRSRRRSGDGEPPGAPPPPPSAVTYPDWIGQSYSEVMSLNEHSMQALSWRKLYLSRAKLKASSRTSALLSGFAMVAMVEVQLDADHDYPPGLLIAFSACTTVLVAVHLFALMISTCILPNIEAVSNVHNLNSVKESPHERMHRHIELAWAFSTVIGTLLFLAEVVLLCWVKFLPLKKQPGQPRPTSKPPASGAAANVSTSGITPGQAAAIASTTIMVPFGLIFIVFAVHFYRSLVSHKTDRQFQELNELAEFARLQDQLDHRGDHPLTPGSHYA
The test can be described thus: HEK Calcium Influx Assay (FLIPR). In kind it is cell-based. To be noted: 10 μM compound, thapsigargin store depletion, Ca2+ signal 9.5-10 min post-administration, read-out: % inhib. [@ 10 μM] FLIPR. The protocol: Compounds of the invention have been tested for their effects on CRAC channels according to the following or similar procedures.
The effect of compounds of the invention on intracellular [Ca^2+] was tested in the HEK293 cell line (ECACC).
HEK293 cells were cultured in DMEM/F12/Glutamax (Gibco) containing 10% FCS (Gibco), and maintained at 37° C., 5% CO2. Cell were split twice a week [3·10^6 (Mon-Thu) and 1·10^6 (Thu-Mon) cells/50 ml medium in T-175 ZK culture flasks, respectively]. 24 hours pre-experiment, cells were seeded on 96 well plates (Poly-D-Lysine 96well Black/Clear Plate, BD Biocoat REF 356640) at a density of 40,000 cells/well in DMEM/F12 (Gibco) containing 10% FCS (Gibco), and maintained at 37° C., 5% CO2.
Prior to store-depletion, cell culture medium was removed and cells were loaded with the a Ca^2+-sensitive fluorescent dye comprised within the Calcium-4-assay kit (Molecular Devices) in nominally Ca^2+-free HBS buffer (140 mM NaCl, 4 mM KCl, 0.2 mM MgCl2, 11 mM D-glucose, and 10 mM HEPES, pH 7.4) according to manufacturer's instruction for 60 min at 37° C., 5% CO2.
Passive depletion of intracellular Ca^2+-stores was then triggered by employing the SERCA inhibitor thapsigargin (2 μM final) for 10 min in the dark (rt). To prevent immediate Ca^2+-entry via the activated Store-operated channels (SOCs), cells were maintained in Ca^2+-free HBS buffer comprising 100 μM EGTA during store-depletion.
Intracellular changes in [Ca^2+] were subsequently monitored with the FLIPR device (Molecular Devices). In brief, baseline imaging post-store depletion was allowed for 1 min before adjusting the extracellular buffer to 3 mM CaCl2. Increases in intracellular [Ca^2+] due to pre-activated SOC channels were monitored for 15 min until intracellular Ca^2+ levels had declined into a steady-state. Finally, compounds were administered and Ca^2+ signals were recorded for additional 10 min.
Inhibition of endogenous SOC in HEK293 cells was quantified employing the average Ca^2+ signal measured from 9.5-10 min post-administration. Zero percent inhibition (MAX) was defined as the Ca^2+ signal recorded from wells to which DMSO-only had been added instead of compound. Hundred percent inhibition (MIN) was defined as the signal obtained from wells in which cells haven't been treated with TG prior to Ca^2+ addition and to which DMSO-only had been added instead of compound. For routine IC50 determinations of compounds, 8 concentrations of a serial dilution (1:3.16) were tested, starting off from 10 μM. Reliable IC50's could consequently be determined only, if they were at least sub 2.5-3 μM.

For the compound `Cn1nc(C(=O)Nc2ccncc2F)cc1-c1ccc(C2CC2)cc1OC(F)(F)F` [Example 41, 5-[4-Cyclopropyl-2-(trifluoromethyloxy)-phenyl]-N-(3-fluoro-pyridin-4-yl)-1-methyl-1H-pyrazole-3-carboxylic acid amide], in test [1], the IC50 (usually the concentration that gives 50% inhibition) lay in the range of 1 to 5 µM. Besides, the inhibition at 10 µM in test [2] is more than 70%.

Consider `Cc1ccc(-c2ncco2)cc1-c1c(N)c(C(=O)Nc2c(F)cncc2F)nn1C` [Example 43, 4-Amino-N-(3,5-difluoro-pyridin-4-yl)-1-methyl-5-(2-methyl-5-oxazol-2-yl-phenyl)-1H-pyrazole-3-carboxylic acid amide], for which, in test [1], the IC50 is 1 to 5 µM. Further, the inhibition at 10 µM in test [2] is less than 50%.

`COc1ccc(-c2nccs2)cc1-c1c(N)c(C(=O)Nc2c(F)cccc2F)nn1C` [Example 44, 4-Amino-N-(2,6-difluoro-phenyl)-5-(2-methoxy-5-thiazol-2-yl-phenyl)-1-methyl-1H-pyrazole-3-carboxylic acid amide]: in test [1], the IC50 was in the range of 1 to 5 µM. The inhibition at 10 µM in test [2] is less than 50%.

For the compound `COc1ccc(-c2ncco2)cc1-c1c(N)c(C(=O)Nc2c(F)cncc2F)nn1C` [Example 45, 4-amino-N-(3,5-difluoropyridin-4-yl)-5-(2-methoxy-5-(oxazol-2-yl)phenyl)-1-methyl-1H-pyrazole-3-carboxamide], the IC50 in test [1] was in the range of 1 to 5 µM. Besides, in test [2], the inhibition at 10 µM is less than 50%.

For `COc1ccc(-c2ncco2)cc1-c1c(N)c(C(=O)Nc2c(F)cccc2F)nn1C` [Example 46, 4-amino-N-(2,6-difluorophenyl)-5-(2-methoxy-5-(oxazol-2-yl)phenyl)-1-methyl-1H-pyrazole-3-carboxamide], in test [1], the half-maximal inhibitory concentration (IC50) was in the range of 1 to 5 µM. Also, in test [2], the inhibition at 10 µM was less than 50%.

On to `COc1ccc(-c2nccs2)cc1-c1c(N)c(C(=O)Nc2c(F)cncc2F)nn1C` [Example 47, 4-amino-N-(3,5-difluoropyridin-4-yl)-5-(2-methoxy-5-(thiazol-2-yl)phenyl)-1-methyl-1H-pyrazole-3-carboxamide], for which the IC50 in test [1] fell in the range of 1 to 5 µM. Also, the inhibition at 10 µM in test [2] was less than 50%.

`COc1ccc(C2=NOC(C)(C)C2=O)cc1-c1cc(C(=O)Nc2c(F)cccc2F)nn1C` [Example 48]: the IC50 in test [1] lay within 0.5 to 1 µM. Moreover, in test [2], the inhibition at 10 µM is less than 50%.

Consider `Cn1nc(C(=O)Nc2c(F)cccc2F)c(N)c1-c1cc(-c2ncco2)ccc1OC(F)(F)F` [Example 49, 4-amino-N-(2,6-difluorophenyl)-1-methyl-5-(5-(oxazol-2-yl)-2-(trifluoromethoxy)phenyl)-1H-pyrazole-3-carboxamide], for which, in test [1], the IC50 was in the range of 0.5 to 1 µM. The inhibition at 10 µM in test [2] lay within 50 to 70%.

Consider `Cn1nc(C(=O)Nc2c(F)cncc2F)c(N)c1-c1cc(-c2ncco2)ccc1OC(F)(F)F` [Example 50, 4-amino-N-(3,5-difluoropyridin-4-yl)-1-methyl-5-(5-(oxazol-2-yl)-2-(trifluoromethoxy)phenyl)-1H-pyrazole-3-carboxamide], for which the IC50 in test [1] lay in the range of 1 to 5 µM. The inhibition at 10 µM in test [2] was less than 50%.

(Values after patent US9206136B2, “Pyrazolyl-based carboxamides I” (Grünenthal GmbH, priority 2013, dated 2015).)
